Measured values: US9737616B2, “Compounds and methods for the treatment of ERB B2/NEU positive diseases” (Bio-Thera Solutions, Ltd., Co., priority 2012, dated 2017)

What was measured:
[1] = tested on: human acute lymphoblastic leukemia line C.E.M.; settings: Wolpert-DeFillippes et al. 1975; cited from earlier work
tubulin = experiment: HTS-Tubulin Polymerization Assay Kit, tubulin polymerization in vitro; assay type: biochemical; settings: for inhibition of tubulin polymerization compared with the PBS buffer: Example 6, 1 μM stock of test substance, 4 mg/mL tubulin, 37° C., 405 nm
Procedure: The effect of 3AA-MDC, 206-3AA-MDC and the metabolites (Cys-3AA-MDC and Lys-mcc-MDC) of prodrug antibody maytansinoid conjugates on the tubulin polymerization in vitro was assessed by HTS-Tubulin Polymerization Assay Kit (BK004P, Cytoskeleton, Inc., USA). According to the instruction of kit, pre-warm the 96-well plate to 37° C. for 30 min prior to starting the assay. At the same time, the spectrophotometer (SpectraMax, Molecular Devices, USA) was set as follow: wavelength, 405 nm; temperature, 37° C.; Kinetic, 31 cycles of 1 reading per minute. Make cold G-PEM buffer (990 μL General Tubulin Buffer+10 μL GTP Stock) and keep it on ice. Prepare 4 mg/mL tubulin, 1 μM L-3AA-MDC (N2′-deacetyl-N2′-(6-maleimido-1-oxo-hexyl)maytansine), 1 μM 206-3AA-MDC, 1 μM cys-3AA-MDC, 1 μM lys-mcc-MDC, 100 μM Paclitaxel, and 100 μM Nocodazole. Add 10 μL G-PEM, 3AA-MDC, 206-3AA-MDC, cys-3AA-MDC, lys-mcc-MDC, Paclitaxel, Nocodazole into the wells, and then add 100 μL 4 mg/ml tubulin to each well. Immediately place the plate into the spectrophotometer and start recording using the kinetic setup described above. […] Nocodazole, the tubulin polymerization inhibitor, was set as a negative control. The metabolite Cys-3AA-MDC was prepared by reaction of 3AA-MDC with cysteine under the base DIEA in CH2Cl2. […] The metabolite Lys-MCC-MDC was prepared by reaction of SMCC-MDC with lysine under the base DIEA in DMF.
The effect of 3AA-MDC and related metabolites on the tubulin polymerization in vitro was assessed by HTS-Tubulin Polymerization Assay Kit (BK004P, Cytoskeleton, Inc., USA). According to the instruction of kit, pre-warm the 96-well plate to 37° C. for 30 min prior to starting the assay. At the same time, the spectrophotometer (SpectraMax, Molecular Devices, USA) was set as follow: wavelength, 405 nm; temperature, 37° C.; Kinetic, 31 cycles of 1 reading per minute. Make cold G-PEM buffer (990 μL General Tubulin Buffer+10 μL GTP Stock) and keep it on ice. Prepare 4 mg/ml tubulin, 200 nM L-3AA-MDC (N2′-deacetyl-N2′-(6-maleimido-1-oxo-hexyl)maytansine), or related compounds cys-3AA-MDC, or lys-mcc-MDC, 100 μM Paclitaxel, 100 μM Nocodazole, and 1 μM 206-3AA-MDC (3AA-MDC-antibody). Add 10 μL G-PEM, 3AA-MDC, Paclitaxel, Nocodazole and 206-3AA-MDC or related metabolites into the wells, and then add 100 μL 4 mg/ml tubulin to each well. Immediately place the plate into the spectrophotometer and start recording using the kinetic setup described above.

COc1cc2cc(c1Cl)N(C)C(=O)C[C@H](OC(=O)[C@H](C)N(C)C(C)=O)[C@]1(C)O[C@H]1[C@H](C)[C@@H]1C[C@@](O)(NC(=O)O1)[C@H](OC)/C=C/C=C(\C)C2 [Maytansine]
inhibitory concentration, as low as [1]: 10^−7 µg/mL

COc1cc2cc(c1Cl)N(C)C(=O)C[C@H](OC(=O)[C@H](C)N(C)C(=O)CCSC1CC(=O)N(CC3CCC(C(=O)NCCCC[C@H](N)C(=O)O)CC3)C1=O)[C@]1(C)O[C@H]1[C@H](C)[C@@H]1C[C@@](O)(NC(=O)O1)[C@H](OC)/C=C/C=C(\C)C2 (stereo partly drawn) [Lys-mcc-MDC]
inhibition of tubulin polymerization compared with the PBS buffer (tubulin): more significantly inhibited

CC(=O)O[C@H]1C(=O)[C@@]2(C)[C@H]([C@H](OC(=O)c3ccccc3)[C@]3(O)C[C@H](OC(=O)[C@H](O)[C@@H](NC(=O)c4ccccc4)c4ccccc4)C(C)=C1C3(C)C)[C@]1(OC(C)=O)CO[C@@H]1C[C@@H]2O [Paclitaxel]
relative activity of tubulin polymerization, enhanced (tubulin; Example 7, 100 μM stock): about 3 fold

COC(=O)Nc1nc2ccc(C(=O)c3cccs3)cc2[nH]1 [Nocodazole]
relative activity of tubulin polymerization, decreased (tubulin; Example 7, 100 μM stock): 2.5 fold

COc1cc2cc(c1Cl)N(C)C(=O)C[C@H](OC(=O)[C@H](C)N(C)C(=O)CCCCCN1C(=O)C=CC1=O)[C@]1(C)OC1[C@H](C)[C@@H]1C[C@@](O)(NC(=O)O1)[C@H](OC)/C=C/C=C(\C)C2 (stereo partly drawn) [3AA-MDC, N2′-deacetyl-N2′-(6-maleimido-1-oxo-hexyl)-maytansine]
inhibition of tubulin polymerization compared with the PBS buffer (tubulin): more significantly inhibited
inhibition of tubulin polymerization (tubulin; Example 7, 200 nM stock, FIG. 1): more significantly inhibited
